Data as given in PubChem BioAssay AID1996.
≈ marks a conversion by molar mass, not a printed value.

Details: buffer; pH 7.4; 200.0 µM
Compound `COc1ccc(NC(=O)COC(=O)C23CC4CC(CC(O)(C4)C2)C3)cc1Cl` has a solubility kinetic of over 59.1 µg/mL. With `CC(NCCc1ccc(O)cc1)C(O)c1ccc(O)cc1.Cl` (stereo not given) the solubility kinetic was over 48.6 µg/mL. `O=C1CCCN1CC(O)CS(=O)(=O)Cc1ccccc1` (stereo not given) showed a solubility kinetic of over 44.6 µg/mL. `Oc1ccc(-c2cn3ccccc3n2)cc1O` gave a solubility kinetic of 24 µg/mL (≈ 106 µM). `Cc1ccccc1NC(=S)NC(=O)Cc1ccc(Cl)cc1` showed a solubility kinetic of 0.5 µg/mL (≈ 1.57 µM). Compound `COC(=O)c1ccc(S(=O)(=O)N2CCCCCC2)n1C` has a solubility kinetic of over 45.1 µg/mL. For `O=C1ON=C(c2ccccc2)/C1=C/c1cccnc1`, the solubility kinetic was 35.8 µg/mL (≈ 143 µM). `O=C(Nc1ccc(Cl)cc1)Nc1ccc(Oc2cccnc2)nc1` showed a solubility kinetic of 0.7 µg/mL (≈ 2.05 µM). Work on `CCOc1ccc(NC(=S)Nc2cccc3ccccc23)cc1` yielded a solubility kinetic of 2 µg/mL (≈ 6.2 µM). Work on `CCOc1ccc(S(=O)(=O)Nc2cc(NS(=O)(=O)c3ccc(OCC)cc3)cc(C(=O)O)c2)cc1` yielded a solubility kinetic of over 78.1 µg/mL. With `Cn1cccc1C1CCCN1CC(=O)Nc1ccc(F)c(F)c1F` (stereo not given) the solubility kinetic was over 50.6 µg/mL. `CC1(C)CN=C(Nc2ccc(F)c(Cl)c2)S1` showed a solubility kinetic of 0.8 µg/mL (≈ 3.09 µM). `Cc1ccsc1C(=O)C1CCCN(Cc2ccc(O)cc2)C1` (stereo not given) gave a solubility kinetic of 36.8 µg/mL (≈ 117 µM). In the case of `CCC(=O)c1ccc(OCC(=O)NCCc2ccccn2)cc1`, the solubility kinetic is reported as over 46.9 µg/mL. For `O=C(NCc1cccnc1)Nc1cccc(NC(=O)NCc2cccnc2)c1F`, the solubility kinetic was 7.6 µg/mL (≈ 19.3 µM). Compound `CCOC(=O)C1=C(C)Nc2ccccc2N=C1N` has a solubility kinetic of over 36.8 µg/mL. `CCOC(=O)CN1C(=O)C(=O)N(Cc2c(F)cccc2Cl)C1=O` showed a solubility kinetic of 45.6 µg/mL (≈ 133 µM). For `O=C(NCCNc1ccc([N+](=O)[O-])cc1)c1cccs1`, the solubility kinetic was 6.7 µg/mL (≈ 23 µM). For `CC(C)CC(=O)N1CC(=O)Nc2ccc(F)cc2C1c1ccccc1` (stereo not given), the solubility kinetic was over 51.1 µg/mL. `CCCCn1c(=S)[nH]c2ccc(N3CCOCC3)cc2c1=O` gave a solubility kinetic of 4.3 µg/mL (≈ 13.5 µM). `NC(=O)Nc1ccc(C(=O)OCC(=O)N2CCCC2=O)cc1` gave a solubility kinetic of over 45.8 µg/mL. In the case of `O=C(NCc1cccnc1)C1CC(c2cccc(Br)c2)=NO1` (stereo not given), the solubility kinetic is reported as 52.5 µg/mL (≈ 146 µM). Work on `CC1(C)C2CCC(C2)C1(C)N=C1OC(CCl)CS1` (stereo not given) yielded a solubility kinetic of 5.9 µg/mL (≈ 20.5 µM). For `CC(=O)c1ccc(S(=O)(=O)Nc2ccc3c(c2)OCO3)cc1`, the solubility kinetic was over 47.9 µg/mL. With `COc1cccc2c(Cl)c(CCCl)c(C)nc12` the solubility kinetic was 1.1 µg/mL (≈ 4.07 µM). `O=C(O)c1nccnc1C(=O)NCc1csc2ccc(Cl)cc12` showed a solubility kinetic of 46.4 µg/mL (≈ 133 µM). Work on `CCOc1ccc(/C=C/C(=O)N2CCOCC2)cc1OC` yielded a solubility kinetic of over 43.7 µg/mL. In the case of `COc1ccc(C(C)NC(=O)CC23CC4CC(CC(C4)C2)C3)cc1` (stereo not given), the solubility kinetic is reported as 19.7 µg/mL (≈ 60.2 µM). For `CSc1cccc(NC(C)C(=O)NCc2ccccc2)c1` (stereo not given), the solubility kinetic was 37.4 µg/mL (≈ 124 µM). `O=c1c2sc(-c3ccccc3)cc2nc2n1CCCCC2` showed a solubility kinetic of 29.5 µg/mL (≈ 99.5 µM). `O=C1CC(c2ccccc2)CC(O)=C1C=NCc1ccncc1` (stereo not given) showed a solubility kinetic of over 46 µg/mL. `S=P(N1CC1)(N1CC1)N1CC1` gave a solubility kinetic of over 28.4 µg/mL. With `O=C(Nc1ccc(Cl)cn1)C1CC1` the solubility kinetic was over 29.5 µg/mL. In the case of `CCCn1c(SCC(=O)NCCCN2CCCC2=O)nc2ccccc2c1=O`, the solubility kinetic is reported as over 60.4 µg/mL. `Cc1cc(=O)[nH]c(Nc2cccc(Br)c2)n1` gave a solubility kinetic of over 42 µg/mL. `CC(C)[C@H](NC(=O)c1cccc(CN(Cc2ccccc2)C(=O)/C=C/c2ccccc2)c1)C(=O)O` gave a solubility kinetic of 69 µg/mL (≈ 147 µM). In the case of `COc1ccc(CC(=O)Nc2nc3ccccc3[nH]2)cc1`, the solubility kinetic is reported as 0.7 µg/mL (≈ 2.49 µM). `O=C(CN1C(=O)NC2(CCc3ccccc32)C1=O)Nc1c(Cl)cccc1Cl` (stereo not given) showed a solubility kinetic of over 60.6 µg/mL. In the case of `COc1ccccc1Nc1nc2cc(C)ccc2cc1C#N`, the solubility kinetic is reported as under 0.2 µg/mL. In the case of `Cc1oc(/N=C/c2ccccc2)c(C#N)c1C`, the solubility kinetic is reported as 9.2 µg/mL (≈ 41 µM). For `COc1ccc(N2C(=O)c3ccccc3C2=O)cc1`, the solubility kinetic was 10.7 µg/mL (≈ 42.2 µM). With `O=C1CC2C(=O)NCCN2C(=NC(=O)c2ccc(Cl)cc2)N1` (stereo not given) the solubility kinetic was 23.5 µg/mL (≈ 73.3 µM). With `Cc1ccc2nc(SC(C)C(=O)N3CCCCC3)[nH]c2c1` (stereo not given) the solubility kinetic was over 45.5 µg/mL. With `Cc1cc(NS(=O)(=O)c2ccc(NC(=O)c3ccc(F)cc3)cc2)nc(C)n1` the solubility kinetic was over 60.1 µg/mL. Work on `O=C(Nc1ccc(N2CCCC2)cc1)c1cccc(Cl)c1Cl` yielded a solubility kinetic of under 0.4 µg/mL. For `COc1ccc(C(=O)Nc2ccc(N3CCN(C)CC3)cc2)cc1`, the solubility kinetic was 42.7 µg/mL (≈ 131 µM). For `CC(=O)C1=C(C)NC(=S)NC1c1cccc([N+](=O)[O-])c1` (stereo not given), the solubility kinetic was 3.5 µg/mL (≈ 12 µM). Compound `NC(=O)C1(c2ccccc2)CCC(=O)N1c1ccccc1` (stereo not given) has a solubility kinetic of over 42 µg/mL. `CC(C)(C)OC(=O)NCCc1n[nH]c(=S)o1` gave a solubility kinetic of over 36.8 µg/mL. `Cc1cccc(-n2c(/C=C/c3ccccn3)nc3ccccc3c2=O)c1` gave a solubility kinetic of 0.5 µg/mL (≈ 1.47 µM). `CC(C)N(C(=O)COC(=O)c1ccc(Cl)nc1)C(C)C` gave a solubility kinetic of 30.7 µg/mL (≈ 103 µM). In the case of `Oc1c(CN2CCCC(C(F)(F)F)C2)cc(Cl)c2ccccc12` (stereo not given), the solubility kinetic is reported as 4.1 µg/mL (≈ 11.9 µM). For `O=C(N/N=C/c1cccnc1)c1ccccc1Br`, the solubility kinetic was over 45.6 µg/mL. Work on `Cc1cc([N+](=O)[O-])ccc1NC(=O)CCC(=O)N1CCCCC1` yielded a solubility kinetic of over 47.9 µg/mL. With `COC(=O)C1=C(C)NC(=O)NC1c1ccc2c(c1)OCO2` (stereo not given) the solubility kinetic was 37.3 µg/mL (≈ 128 µM). For `O=C1CN(C(=O)CN2C(=O)NC(c3ccccc3)(c3ccccc3)C2=O)c2ccccc2N1`, the solubility kinetic was 6.3 µg/mL (≈ 14.3 µM). With `CC(=O)O.CC1=CC(C)C(/C=N/N=C(N)N)C(C)C1` (stereo not given) the solubility kinetic was over 40.3 µg/mL. Compound `O=C(NCCC(=O)N1CCc2ccccc21)c1ccccc1Cl` has a solubility kinetic of 32.1 µg/mL (≈ 97.6 µM). `Cc1ccc(/C=C2\CCn3c2nc2cc(C(=O)O)ccc2c3=O)c(C)c1` showed a solubility kinetic of 45.7 µg/mL (≈ 132 µM). Work on `CC(=O)Nc1ccc(NC(=O)CC(c2ccccc2)c2ccccc2)cc1` yielded a solubility kinetic of 2.1 µg/mL (≈ 5.86 µM). Compound `COc1ccc(NC(=O)COc2ccc(/C=N/O)cc2OC)cc1` has a solubility kinetic of over 49.6 µg/mL. For `O=C(COC(=O)c1ccccc1O)NCc1ccc2c(c1)OCO2`, the solubility kinetic was 5.7 µg/mL (≈ 17.3 µM). Work on `COc1ccccc1CNc1cc(C)ccn1` yielded a solubility kinetic of 28.8 µg/mL (≈ 126 µM). With `Cc1cc(C)c(C)c(S(=O)(=O)Nc2cccnc2)c1C` the solubility kinetic was 3.6 µg/mL (≈ 12.4 µM). `CCCN(Cc1cc(=O)[nH]c2ccccc12)C(=O)CC` showed a solubility kinetic of 38.5 µg/mL (≈ 141 µM). `COC(=O)c1ccc(NC(=O)Cn2c([N+](=O)[O-])cnc2C)cc1` showed a solubility kinetic of 28.8 µg/mL (≈ 90.5 µM). For `NC(=O)c1ccc[n+](CC(=O)NCc2ccc(Cl)cc2)c1.[Cl-]`, the solubility kinetic was over 51 µg/mL. For `COc1ccc(NC(=O)CSc2ccc(NC(C)=O)cc2)cc1S(=O)(=O)N1CCOCC1`, the solubility kinetic was over 71.9 µg/mL. Work on `CCOc1cc(/C=C2/C(=O)ON=C2C)cc(Br)c1O` yielded a solubility kinetic of over 48.9 µg/mL. `O=C1CN=C(c2ccccc2)c2cc([N+](=O)[O-])ccc2N1` gave a solubility kinetic of over 42.2 µg/mL. For `COc1ccccc1CSc1nc2c(c(=O)n(C)c(=O)n2C)n1C`, the solubility kinetic was 9.8 µg/mL (≈ 28.3 µM). Work on `CC(=O)N1CCN(CC(=O)Nc2cc(F)ccc2C)CC1` yielded a solubility kinetic of over 44 µg/mL. Work on `COc1ccc2oc(=N)c(C(=O)Nc3ccc(Cl)cc3)cc2c1` yielded a solubility kinetic of under 0.4 µg/mL. In the case of `CC1CCc2onc(C(=O)NCc3ccco3)c2C1` (stereo not given), the solubility kinetic is reported as 22.6 µg/mL (≈ 86.8 µM). `O=C(O)CCc1ccc(-c2ccccc2)n1-c1ccc(C(=O)O)cc1` gave a solubility kinetic of 47 µg/mL (≈ 140 µM). With `Cc1ccc(C)c(S(=O)(=O)Nc2ccc3[nH]c(=O)[nH]c3c2)c1` the solubility kinetic was 10.4 µg/mL (≈ 32.8 µM). `Cn1cnnc1SCC(=O)NC1CCCCCC1` gave a solubility kinetic of over 40.3 µg/mL. With `O=c1ccc(-c2nc3ccccc3n2Cc2ccc(Cl)cc2)c[nH]1` the solubility kinetic was 38.7 µg/mL (≈ 115 µM). `CCCc1cc(NCc2ccccn2)n2c(nc3ccccc32)c1C#N` gave a solubility kinetic of under 0.1 µg/mL. For `CC(=O)Nc1ccc(S(=O)(=O)NCCC(=O)NC(C)c2cccs2)cc1` (stereo not given), the solubility kinetic was over 59.3 µg/mL. For `CC1(C(=O)O)CCC(C(N)=O)C1(C)C` (stereo not given), the solubility kinetic was over 29.9 µg/mL. Compound `Cc1cc(C(=O)Nc2sccc2C#N)c2ccccc2n1` has a solubility kinetic of 20.8 µg/mL (≈ 70.9 µM). `Brc1ccc(OCCCOc2cccc3cccnc23)cc1` gave a solubility kinetic of under 0.8 µg/mL. With `C[C@@H](C(=O)Nc1cccnc1)n1c(=O)[nH]c2ccccc2c1=O` the solubility kinetic was over 46.5 µg/mL. For `CCCCN(C/C=C/c1ccccc1OC)Cc1ccccc1`, the solubility kinetic was 3.5 µg/mL (≈ 11.3 µM).
